For this experiment, the target named is T1, α1G T-type calcium channel (Homo sapiens, UniProt O43497).
T1 construct: expressed in transfected cells; host or cells: HEK293 cells stably expressing α1G, selected with G-418; The cell line KCTC 10519BP is named only for the FDSS6000 screen
In words: T-type calcium channel activity by electrophysiological whole-cell patch-clamp technique. The format is cell-based. Particulars: HEK293 cells stably expressing α1G T-type calcium channels, inhibition of inward peak currents, test pulse −30 mV, holding −100 mV. How it is done:
The novel compounds of the present invention represented by the above formula 1 were tested for their antagonistic activities with regard to T-type calcium channel as follows.
2) Methods for the Measurements of T-Type Calcium Channel Activity Using an Electrophysiological Whole-Cell Patch-Clamp Technique
HEK293 cells stably expressing T-type calcium channels were cultured in DMEM (Dulbecco's modified Eagle's medium) containing 10% (v/v) fetal bovine serum and 1% penicillin/streptomycin (v/v) in humidified 5% CO2 at 36.5° C. Cells expressing α1G T-type calcium channels were selected using G-418 (0.5 mg/mL) in the culture medium. The culture medium was replaced with a fresh one every 3-4 days, and cells were subcultured every week.
Cells were seeded on the coverglass coated with poly-L-lysine (0.5 mg/mL) for the measurements of T-type calcium channel activity 2-7 days prior to the recordings. Whole-cell recordings of T-type calcium channel currents were performed using an EPC-9 patch clamp amplifier (HEKA, Germany). Whole-cell currents were recorded using micropipettes with resistance of 3-4MΩ with the pipette (intracellular) solution containing (in mM): 130 KCl, 11 EGTA, 5 Mg-ATP, and 10 HEPES, pH to 7.4 and with the bath (extracellular) solution containing (in mM): 140 NaCl, 2 CaCl2, and 10 HEPES, pH to 7.4. The inward currents of T-type calcium channels were evoked by the test pulses of −30 mV for 50 ms at a holding potential of −100 mV every 10 seconds.
Each compound was dissolved in dimethylsulfoxide (DMSO) as 10 mM stock solutions and diluted in the bath solution to 10 μM (containing 0.1% DMSO). […] More specifically, each compound was perfused to the bath for about 30-60 seconds, and the inhibition of the inward peak currents by a test compound was calculated as a percent inhibition from which IC50 values were determined.

T1 sequence (O43497 whole entry): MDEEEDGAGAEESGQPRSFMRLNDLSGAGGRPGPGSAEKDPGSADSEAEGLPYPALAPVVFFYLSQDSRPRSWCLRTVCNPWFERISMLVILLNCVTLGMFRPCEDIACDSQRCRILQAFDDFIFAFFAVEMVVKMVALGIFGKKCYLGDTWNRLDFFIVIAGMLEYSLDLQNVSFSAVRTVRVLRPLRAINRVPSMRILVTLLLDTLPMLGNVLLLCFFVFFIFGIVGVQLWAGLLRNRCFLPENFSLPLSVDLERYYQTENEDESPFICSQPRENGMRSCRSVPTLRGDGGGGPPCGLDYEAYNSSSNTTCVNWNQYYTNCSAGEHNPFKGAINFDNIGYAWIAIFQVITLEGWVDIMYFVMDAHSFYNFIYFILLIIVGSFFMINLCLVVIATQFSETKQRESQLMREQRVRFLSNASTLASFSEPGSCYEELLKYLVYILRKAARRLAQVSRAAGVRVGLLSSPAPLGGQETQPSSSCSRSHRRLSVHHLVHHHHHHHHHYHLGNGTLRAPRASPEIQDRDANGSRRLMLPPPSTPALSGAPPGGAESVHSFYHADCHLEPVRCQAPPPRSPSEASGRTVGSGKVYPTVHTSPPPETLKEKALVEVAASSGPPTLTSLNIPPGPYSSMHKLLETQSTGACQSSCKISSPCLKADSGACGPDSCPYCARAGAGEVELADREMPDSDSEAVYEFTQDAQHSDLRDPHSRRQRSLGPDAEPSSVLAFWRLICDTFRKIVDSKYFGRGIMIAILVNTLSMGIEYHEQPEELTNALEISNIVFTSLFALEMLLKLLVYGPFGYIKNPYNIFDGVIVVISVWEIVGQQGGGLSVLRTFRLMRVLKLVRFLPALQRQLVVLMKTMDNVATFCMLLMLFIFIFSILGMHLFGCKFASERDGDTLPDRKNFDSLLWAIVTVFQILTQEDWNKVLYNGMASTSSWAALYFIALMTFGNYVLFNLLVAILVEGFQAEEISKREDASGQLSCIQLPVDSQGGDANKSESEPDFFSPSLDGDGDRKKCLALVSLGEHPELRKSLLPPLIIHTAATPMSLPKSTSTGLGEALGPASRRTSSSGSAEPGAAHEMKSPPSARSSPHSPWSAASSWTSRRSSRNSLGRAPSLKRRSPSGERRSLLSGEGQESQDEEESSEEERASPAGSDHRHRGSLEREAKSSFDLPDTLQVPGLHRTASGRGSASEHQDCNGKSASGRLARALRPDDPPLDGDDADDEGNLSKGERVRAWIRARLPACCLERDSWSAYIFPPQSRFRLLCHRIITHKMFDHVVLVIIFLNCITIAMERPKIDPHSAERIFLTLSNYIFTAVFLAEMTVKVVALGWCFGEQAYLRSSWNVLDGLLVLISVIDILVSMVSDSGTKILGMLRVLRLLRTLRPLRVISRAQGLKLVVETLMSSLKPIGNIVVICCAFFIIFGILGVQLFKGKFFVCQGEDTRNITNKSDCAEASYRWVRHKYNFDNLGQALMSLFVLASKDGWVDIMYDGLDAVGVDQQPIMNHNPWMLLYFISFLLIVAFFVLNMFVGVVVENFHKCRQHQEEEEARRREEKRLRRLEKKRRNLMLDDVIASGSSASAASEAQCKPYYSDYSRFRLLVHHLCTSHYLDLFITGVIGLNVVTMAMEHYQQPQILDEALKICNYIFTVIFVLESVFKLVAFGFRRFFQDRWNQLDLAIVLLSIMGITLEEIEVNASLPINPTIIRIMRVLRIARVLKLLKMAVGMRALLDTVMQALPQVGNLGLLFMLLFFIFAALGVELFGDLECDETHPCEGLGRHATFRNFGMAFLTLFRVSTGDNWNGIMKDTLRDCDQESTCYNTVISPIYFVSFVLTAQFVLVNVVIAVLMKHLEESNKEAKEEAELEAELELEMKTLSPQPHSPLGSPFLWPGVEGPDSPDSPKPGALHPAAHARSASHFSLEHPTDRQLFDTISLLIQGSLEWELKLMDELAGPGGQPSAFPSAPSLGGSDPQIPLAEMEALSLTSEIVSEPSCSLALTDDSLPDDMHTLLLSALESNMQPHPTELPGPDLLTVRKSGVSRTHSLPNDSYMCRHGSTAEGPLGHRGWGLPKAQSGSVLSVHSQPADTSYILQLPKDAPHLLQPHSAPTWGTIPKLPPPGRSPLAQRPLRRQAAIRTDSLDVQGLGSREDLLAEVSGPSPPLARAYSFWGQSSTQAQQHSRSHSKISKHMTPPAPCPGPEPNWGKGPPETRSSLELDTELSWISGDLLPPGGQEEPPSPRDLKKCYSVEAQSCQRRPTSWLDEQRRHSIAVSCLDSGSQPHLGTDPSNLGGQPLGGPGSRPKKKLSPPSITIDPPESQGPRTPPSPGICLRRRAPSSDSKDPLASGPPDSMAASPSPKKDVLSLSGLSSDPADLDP

One may read the IC50 as the concentration that inhibits the measured activity by half. As for `Cc1cccc(N2CCN(CC(=O)NCc3cc(C)n(-c4ccccc4)n3)CC2)c1C` [Compound No. 1, 3-{[4-(2,3-dimethyl)phenylpiperazin-1-yl]methylcarboxamido}methyl-5-methyl-1-phenyl-1H-pyrazole], the IC50 was determined as 0.02 ± 0.01 µM.
For `Cc1cc(CNC(=O)CN2CCN(C(c3ccccc3)c3ccccc3)CC2)nn1-c1ccccc1` [Compound No. 3, 3-[(4-benzhydrylpiperazin-1-yl)methylcarboxamido]methyl-5-methyl-1-phenyl-1H-pyrazole] the value was 1.83 ± 0.12 µM; for `Cc1cc(CNC(=O)CN2CCN(Cc3cccc(C(F)(F)F)c3)CC2)nn1-c1ccccc1` [Compound No. 5, 3-{[4-(3-trifluoromethyl)benzylpiperazin-1-yl]methylcarboxamido}methyl-5-methyl-1-phenyl-1H-pyrazole], 1.42 ± 0.16 µM; for `Cc1cc(CNC(=O)CN2CCN(Cc3ccc(Cl)c(Cl)c3)CC2)nn1-c1ccccc1` [Compound No. 6, 3-{[4-(3,4-dichlorobenzyl)piperazin-1-yl]methylcarboxamido}methyl-5-methyl-1-phenyl-1H-pyrazole], 1.42 ± 0.16 µM.
To `CC(C)Cc1cc(CNC(=O)CN2CCN(c3ccccc3)CC2)nn1-c1ccccc1` [Compound No. 9, 3-[(4-phenylpiperazin-1-yl)methylcarboxamido]methyl-5-isobutyl-1-phenyl-1H-pyrazole] belongs 3.54 ± 0.09 µM; to `O=C(CN1CCN(c2ccccc2)CC1)NCc1cc(-c2ccco2)n(-c2ccccc2)n1` [Compound No. 11, 3-[(4-phenylpiperazin-1-yl)methylcarboxamido]methyl-5-furyl-1-phenyl-1H-pyrazole], 2.57 ± 0.17 µM.
To `CC(C)Cc1cc(CNC(=O)CN2CCN(Cc3ccc(C(F)(F)F)cc3)CC2)nn1-c1ccccc1` [Compound No. 16, 3-{[4-(4-trifluoromethylbenzyl)piperazin-1-yl]methylcarboxamido}methyl-5-isobutyl-1-phenyl-1H-pyrazole] belongs 1.77 ± 0.1 µM; to `CCCc1cc(CNC(=O)CN2CCN(c3ccccc3)CC2)nn1-c1ccccc1` [Compound No. 27, 3-[(4-phenylpiperazin-1-yl)methylcarboxamido}methyl-5-propyl-1-phenyl-1H-pyrazole], 5.1 ± 0.11 µM.
For the compound `CCCc1cc(CNC(=O)CN2CCN(Cc3ccc(C(F)(F)F)cc3)CC2)nn1-c1ccccc1` [Compound No. 32, 3-{[4-(4-trifluoromethyl)benzylpiperazin-1-yl]methylcarboxamido}methyl-5-propyl-1-phenyl-1H-pyrazole], the half-inhibitory concentration (IC50) was 1.81 ± 0.09 µM.
For `CCCc1cc(CNC(=O)CN2CCN(Cc3ccc4c(c3)OCO4)CC2)nn1-c1ccccc1` [Compound No. 33, 3-[(4-piperonylpiperazin-1-yl)methylcarboxamido]methyl-5-propyl-1-phenyl-1H-pyrazole] the value was 9.56 ± 1.42 µM; for `CC(C)Cc1cc(CNC(=O)CN2CCN(c3ccccn3)CC2)nn1-c1ccccc1` [Compound No. 36, 3-{[4-(2-pyridyl)piperazin-1-yl]methylcarboxamido}methyl-5-isobutyl-1-phenyl-1H-pyrazole], 9.42 ± 0.7 µM; for `Cc1cccc(N2CCN(C(=O)CNCc3cc(C)n(-c4ccccc4)n3)CC2)c1C` [Compound No. 64, 3-{[4-(2,3-dimethylphenyl)piperazin-1-yl]carbonylmethylamino}methyl-5-methyl-1-phenyl-1H-pyrazole], 2.06 ± 1.2 µM.
For `Cc1cc(CNCC(=O)N2CCN(C(c3ccccc3)c3ccccc3)CC2)nn1-c1ccccc1` [Compound No. 65, 3-[(4-benzhydrylpiperazin-1-yl)carbonylmethylamino]methyl-5-methyl-1-phenyl-1H-pyrazole] the value was 3.5 ± 0.35 µM; for `Cc1ccc(N2CCN(C(=O)CNCc3cc(CC(C)C)n(-c4ccccc4)n3)CC2)c(C)c1` [Compound No. 69, 3-{[4-(2,4-dimethylphenyl)piperazin-1-yl]carbonylmethylamino}methyl-5-isobutyl-1-phenyl-1H-pyrazole], 0.4 ± 0.04 µM; for `CC(C)Cc1cc(CNCC(=O)N2CCN(Cc3ccc(Cl)c(Cl)c3)CC2)nn1-c1ccccc1` [Compound No. 75, 3-{[4-(3,4-dichlorobenzyl)piperazin-1-yl]carbonylmethylamino}methyl-5-isobutyl-1-phenyl-1H-pyrazole], 0.3 ± 0.01 µM.
For `Cc1cccc(N2CCN(C(=O)CNCc3cc(CC(C)C)n(-c4ccccc4)n3)CC2)c1C` [Compound No. 76, 3-{[4-(2,3-dimethylphenyl)piperazin-1-yl]carbonylmethylamino}methyl-5-isobutyl-1-phenyl-1H-pyrazole] the value was 0.36 ± 0.03 µM.
